Patent US20250151729A1, “METHOD FOR REDUCING OR PREVENTING EFFECT OF SALT STRESS ON PLANT” (NIPPON SODA CO., LTD, priority 2022, published 2025)

Tests used:
Format in all cases: in vivo
[1] = test system: wheat (Norin 61); assay: Test Example 3: wheat seeds on filter paper under 125 mM sodium chloride salt stress; settings: for Foliage Length / Root Length / Root Number of roots / Foliage Recovery percentage / Root Recovery percentage: after 4 days; for Foliage Recovery percentage / Root Recovery percentage: relative to Comparative Examples 3a and 3b
Method: A flowable agent containing 10% of the compound of formula (I)-1 was diluted 105 times and 107 times with water to obtain chemical solution 3a and chemical solution 3b, respectively.
(§1) Eight layers of filter paper were placed at the center of a laboratory dish, and seeds (six seeds) of wheat (Norin 61) were placed on the filter paper. Four of these were prepared.
(1) 125 mM sodium chloride and 10 mL of chemical solution 2a were poured into the laboratory dish (Example 3a).
(2) 125 mM sodium chloride and 10 mL of chemical solution 2b were poured into the laboratory dish (Example 3b).
(3) 125 mM sodium chloride and 10 ml of water were poured into the laboratory dish (Comparative Example 3a).
(4) 10 mL of water was poured into the laboratory dish (Comparative Example 3b).
Each laboratory dish was placed in a growth chamber set at 25° C. and light/dark=16/8. After 4 days, the number of roots, the root length, and the foliage length were measured for five seeds in each of (1) to (4). The recovery percentage was calculated in the same manner as in Test Example 1.

[2] = test system: wheat (variety: Kitahonami); assay: Test Example 6: wheat pot test, 8 g/L sodium chloride solution poured over soil; settings: 8 g/L NaCl
Method: (1) Example 6a: 8 g/L sodium chloride solution and chemical solution 6a were poured.
(2) Comparative Example 6a: 8 g/L sodium chloride solution and water were poured.
(3) Comparative Example 6b: Water was poured.
Plastic pots were filled with Kannami soil, and five seeds of wheat (variety: Kitahonami) were sowed at the center of each pot (3 cm in depth). Each test was repeated three times.
After sowing, the pots were allowed to stand in a growth chamber (20° C. dark room) for 4 days and then moved to a greenhouse.
A flowable agent containing 5% of a compound of formula (I)-1 was diluted 103 times with water to prepare chemical solution 6, and 17.3 mL of this chemical solution was poured for each pot on the 7th day after sowing (only Example 6a).
From the 10th day after sowing, 8 g/L sodium chloride solution was poured over the soil, 30 mL for each pot, once a day (only Example 6a and Comparative Example 6a).
On the 17th day after sowing, the largest root length (cm), the number of rooted individuals, the plant height (cm), and the top and root dry weights (g) were measured.

[3] = test system: edible corn (Idaho Sweet 88); assay: Test Example 5: corn pot test, 8 g/L sodium chloride solution poured over soil; settings: 8 g/L NaCl
Method: (§2) (1) Example 5a: 8 g/L sodium chloride solution and chemical solution 5a were poured.
(§3) (2) Comparative Example 5a: 8 g/L sodium chloride solution and water were poured.
(§4) (3) Comparative Example 5b: Water was poured.
(§5) Plastic pots were filled with Kannami soil, and seeds of edible corn (Idaho Sweet 88) and soybean (Enrei) were sowed in their respective pots, three seeds for each pot (3 cm in depth). Each test was repeated three times. The plants were grown with subirrigation in a greenhouse.
(§6) A flowable agent containing 5% of the compound of formula (I)-1 was diluted 103 times with water to prepare chemical solution 5, and 17.3 mL of this chemical solution was poured for each pot on the 8th day after sowing (only Example 5a).
(§7) After the chemical treatment, with a pot without holes placed at the bottom, tap water was misted from above on weekends and holidays, and 50 mL of tap water was poured over the soil for each pot every weekday.
(§8) From the 11th day after sowing, 8 g/L sodium chloride solution was poured over the soil, 50 mL for each pot, every day (only Example 5a and Comparative Example 5a).
(§9) On the 19th day after sowing, the largest root length (cm), the plant height (cm), and the top and root dry weights (g) were measured.

[4] = test system: wheat (Norin 61); assay: Test Example 1: wheat seeds on filter paper under 125 mM sodium chloride salt stress; settings: for Foliage Length / Root Length / Root Number of roots / Foliage Recovery percentage / Root Recovery percentage: after 6 days; for Foliage Length / Root Length / Root Number of roots: average of six seeds; for Foliage Recovery percentage / Root Recovery percentage: relative to Comparative Examples 1a and 1b
Method: A flowable agent containing 10% of the compound of formula (I)-1 was diluted 103 times and 104 times with water to obtain chemical solution 1a and chemical solution 1b, respectively.
as §1
(1) 125 mM sodium chloride and 10 mL of chemical solution 1a were poured into the laboratory dish (Example 1a).
(2) 125 mM sodium chloride and 10 mL of chemical solution 1b were poured into the laboratory dish (Example 1b).
(3) 125 mM sodium chloride and 10 mL of water were poured into the laboratory dish (Comparative Example 1a).
(4) 10 mL of water was poured into the laboratory dish (Comparative Example 1b).
Each laboratory dish was placed in a growth chamber set at 25° C. and light/dark=16/8. After 6 days, the number of roots, the root length, and the foliage length were measured for six seeds in each of (1) to (4).
The recovery percentage was calculated from the following equation:
[formula] • X: Chemical treatment, sodium chloride applied • Y: No chemical treatment, sodium chloride applied • Z: No chemical treatment, no sodium chloride treatment

[5] = test system: rice (Koshihikari: Oryza sativa); assay: Test Example 4: rice in Wagner pots under submerged conditions with sodium chloride aqueous solution
Method: In the middle of June, Arakidatsuchi (2 mm sieved, Akagi Engei) was placed in a Wagner pot (1/5000 a), and five grains of dried seed rice (Koshihikari: Oryza sativa) were sown at the center of the Wagner pot at a sowing depth of 3 mm to 5 mm, thus starting raising by direct seeding under submerged conditions. Individuals except for one well-grown individual from which 2 to 3 tillers appeared were cut for thinning with scissors on the 28th day after sowing. Ten pots of these were prepared.
Midseason drainage was performed on the 47th to 49th day after sowing. A flowable agent containing 10% of the compound of formula (I)-1 was diluted 103 times with water to obtain chemical solution 4. […]
The number of withered, dead stems, the number of rolled leaves, the number of crown roots, the amount of water decrease, and the length of leaf tip blight were measured on the 68th day after sowing. […]
The plant height, the number of stems, the culm length, the number of ears, the ear length, the number of whitened unhulled rice grains, the leaf color of flag leaves, and the numbers of flag leaf blights and withered, dead leaves were measured in the heading period or after. […]
The culm length, the number of ears, the ear length, the number of whitened unhulled rice grains, the leaf color of flag leaves, and the numbers of flag leaf blights and withered, dead leaves were measured on the 106th day after sowing. […]

[6] = test system: soybean (Enrei); assay: Test Example 5: soybean pot test, 8 g/L sodium chloride solution poured over soil; settings: 8 g/L NaCl
Method: as §2, §3, §4, §5, §6, §7, §8, §9

[7] = test system: corn (P2307); assay: Test Example 2: corn seeds on filter paper under 125 mM sodium chloride salt stress
Method: A flowable agent containing 10% of the compound of formula (I)-1 was diluted 106 times with water to obtain chemical solution 2a.
Eight layers of filter paper were placed at the center of a laboratory dish, and seeds (five seeds) of corn (P2307) were placed on the filter paper. Four of these were prepared.
(1) 125 mM sodium chloride and 10 mL of chemical solution 2a were poured into the laboratory dish (Example 2a).
(2) 125 mM sodium chloride and 10 ml of water were poured into the laboratory dish (Comparative Example 2a).
(3) 10 mL of water was poured into the laboratory dish (Comparative Example 2b).
Each laboratory dish was placed in a growth chamber set at 25° C. and light/dark=16/8. After 4 days, the number of roots, the root length, and the foliage length were measured for five seeds in each of (1) to (3). The recovery percentage was calculated in the same manner as in Test Example 1.

[8] = 125 mM sodium chloride + 10 mL chemical solution 3a (10% flowable diluted 105 times; b105 prints chemical solution 2a)
[9] = 125 mM sodium chloride + 10 mL chemical solution 3b (10% flowable diluted 107 times; b106 prints chemical solution 2b)
[10] = 125 mM sodium chloride + chemical solution 3a (diluted 105 times)
[11] = 125 mM sodium chloride + chemical solution 3b (diluted 107 times)
[12] = 125 mM sodium chloride salt stress, vs salt stress without the compound
[13] = 5% flowable diluted 103 times, 17th day after sowing
[14] = 17.3 mL per pot of 5% flowable diluted 103 times on 7th day, measured 17th day after sowing
[15] = vs salt stress without the compound
[16] = 5% flowable diluted 103 times, 19th day after sowing
[17] = 17.3 mL per pot of 5% flowable diluted 103 times on 8th day, measured 19th day after sowing
[18] = 125 mM sodium chloride + 10 mL chemical solution 1a (10% flowable diluted 103 times)
[19] = 125 mM sodium chloride + 10 mL chemical solution 1b (10% flowable diluted 104 times)
[20] = 125 mM sodium chloride + chemical solution 1a (diluted 103 times)
[21] = 125 mM sodium chloride + chemical solution 1b (diluted 104 times)
[22] = 125 mM sodium chloride + 10 mL chemical solution 2a (10% flowable diluted 106 times), after 4 days, average of five seeds
[23] = 125 mM sodium chloride + chemical solution 2a (diluted 106 times), after 4 days, relative to Comparative Examples 2a and 2b

Cn1nnnc1C(=NOCc1cccc(NC(=O)OC(C)(C)C)n1)c1ccccc1 [compound of formula (I)-1]
Foliage Length [1, 8]: 23.3 mm | Root Length [1, 8]: 30.8 mm | Root Number of roots [1, 8]: 4.0 | Foliage Length [1, 9]: 25.0 mm | Root Length [1, 9]: 29.0 mm | Root Number of roots [1, 9]: 4.0 | Foliage Recovery percentage [1, 10]: 0.0% | Root Recovery percentage [1, 10]: 41.8% | Foliage Recovery percentage [1, 11]: 0.0% | Root Recovery percentage [1, 11]: 19.0% | Recovery in the root compared with Comparative Example 3a (in words) [1, 12]: more recovery in the root | Largest root length Wheat A: number relative to 100 of Comparative Example 6b [2, 13]: 100 | Number of rooted individuals Wheat A: number relative to 100 of Comparative Example 6b [2, 13]: 104 | Plant height Wheat A: number relative to 100 of Comparative Example 6b [2, 13]: 98 | Root dry weight Wheat A: number relative to 100 of Comparative Example 6b [2, 13]: 94 | Top dry weight Wheat A: number relative to 100 of Comparative Example 6b [2, 13]: 96 | Largest root length Wheat [2, 14]: 18.3 cm | Number of rooted individuals Wheat [2, 14]: 8.0 Number | Plant height Wheat [2, 14]: 29.3 cm | Root dry weight Wheat [2, 14]: 0.034 g | Top dry weight Wheat [2, 14]: 0.059 g | Number of rooted individuals, plant height and root dry weight compared with Comparative Example 6a (in words) [2, 15]: better | Plant height Corn A: number relative to 100 of Comparative Example 5b [3, 16]: 91 | Root dry weight Corn A: number relative to 100 of Comparative Example 5b [3, 16]: 90 | Root length Corn A: number relative to 100 of Comparative Example 5b [3, 16]: 96 | Top dry weight Corn A: number relative to 100 of Comparative Example 5b [3, 16]: 83 | Plant height Corn [3, 17]: 37.0 cm | Root dry weight Corn [3, 17]: 0.10 g | Root length Corn [3, 17]: 17.3 cm | Top dry weight Corn [3, 17]: 0.40 g | Corn values compared with Comparative Example 5a (in words) [3, 15]: better values | Foliage Length [4, 18]: 68.8 mm | Root Length [4, 18]: 49.6 mm | Root Number of roots [4, 18]: 5.6 | Foliage Length [4, 19]: 64.2 mm | Root Length [4, 19]: 50.2 mm | Root Number of roots [4, 19]: 5.2 | Foliage Recovery percentage [4, 20]: 31.0% | Root Recovery percentage [4, 20]: 8.1% | Foliage Recovery percentage [4, 21]: 15.8% | Root Recovery percentage [4, 21]: 9.1% | Recovery compared with Comparative Example 1a (in words) [4, 12]: more recovery | Growth and yield measurements, effect of chemical treatment (in words) ([5]; 2 g/L sodium chloride aqueous solution, 28 g ai per 10 a under submerged conditions): same effect was observed | Growth and yield measurements compared with Comparative Example 4a (in words) ([5]; 10 g/L sodium chloride aqueous solution, chemical solution 4, 56 mL per pot, 280 g ai per 10 a, on 50th day after sowing, FIGS. 1 to 14): better values | Plant height Soybean A: number relative to 100 of Comparative Example 5b [6, 16]: 101 | Root dry weight Soybean A: number relative to 100 of Comparative Example 5b [6, 16]: 72 | Root length Soybean A: number relative to 100 of Comparative Example 5b [6, 16]: 105 | Top dry weight Soybean A: number relative to 100 of Comparative Example 5b [6, 16]: 91 | Plant height Soybean [6, 17]: 48.3 cm | Root dry weight Soybean [6, 17]: 0.15 g | Root length Soybean [6, 17]: 14.3 cm | Top dry weight Soybean [6, 17]: 0.72 g | Soybean values compared with Comparative Example 5a (in words) [6, 15]: better values | Foliage Length [7, 22]: 17.2 mm | Root Length [7, 22]: 38.6 mm | Root Number of roots [7, 22]: 5.2 | Foliage Recovery percentage [7, 23]: 28.3% | Root Recovery percentage [7, 23]: 33.8% | Recovery compared with Comparative Example 2a (in words) [7, 12]: more recovery
